The values that follow are results of earlier work, collected in patent US5217965A, “Stabilized solid dosage forms of choline metal carboxymethylcellulose salicylate compositions” (Euroceltique, S.A., priority 1991, dated 1993).

For this series the following is noted: background.

For `C[N+](C)(C)CCO.O=C([O-])c1ccccc1O` [Choline salicylate], the Hygroscopicity entry is “highly hygroscopic”.
